The values below come from patent US20190060473A1, “HSP90 INHIBITOR DRUG CONJUGATES” (priority 2016, published 2019).

A short description of data set [1]: Metabolic stability in mouse whole blood (LC-MS/MS). The class given is in vitro ADME. The settings on record: mouse whole blood, 10 μM, percent of test compound remaining after 1 hour, average of duplicate. The method, then:
Metabolic stability of various HDCs was tested in mouse blood. All compounds were tested at a concentration of 10 μM. The time dependent disappearance of test compound in mouse whole blood, and the release of the compound qualitatively as determined by liquid chromatography tandem mass spectrometry (LC-MS/MS), was tested at time points of 15 minutes, 30 minutes, 45 minutes and 1 hour. All compounds were tested in duplicate, and the average was taken. The results in Table 2 show the percent of test compound remaining after 1 hour.

Data set [2] concerns HER2 expression in BT-474 human breast cancer cells. The experiment in a line: In-Cell Western assay (ICW) for HER2 expression in BT-474 cells. The settings on record: BT-474 cells, 24 h incubation, 3-fold serial dilutions, HER2 signal normalized to DRAQ5; read-out: HER2 (ICW). The class given is cell-based. The method, then: The HDCs as described herein were used in various experiments to determine their activity and properties, such as binding affinity and stability in blood. An in-Cell Western assay (ICW) for HER2 expression was carried out in BT-474 human breast cancer cells. BT-474 cells were seeded in 96-well plates at a density of 20,000 cells per well. Twenty-four hours after plating, cells were dosed with graded concentrations of HDCs using 3-fold serial dilutions and incubated for 24 h. Growth media containing drug was aspirated off. Cells were then fixed in 4% paraformaldehyde for 20 min and washed three times in 0.1% Triton X-100. After blocking for 1.5 h in Odyssey Blocking Buffer (LI-COR, Lincoln, Nebr., USA), cells were incubated with primary HER2 antibody overnight at 4° C. Wells were washed three times with 0.1% Tween-20 and incubated in secondary antibody (LI-COR, Lincoln, Nebr., USA) and DRAQ5 (CST, Beverly, Mass., USA) for 1 h. Following 3 final washes with 0.1% Tween-20, antibody-antigen complexes were visualized using the Odyssey system. For quantification, HER2 signal was normalized to DRAQ5 flourescent probe.

The next data set concerns the target Hsp90. The data set can be described thus: Binding affinity (Kd) by standard methods. The method, then: Finally, binding affinity (Kd) was determined for various HDCs using standard methods.

In the case of `CCNC(=O)c1nnc(-c2cc(C(C)C)c(O)cc2O)n1-c1ccc(CN2CCC(C(=O)N3CCC(C(=O)OC[C@@H](NC(=O)c4cc(-c5cc(NC(C)C)ncc5Cl)c[nH]4)c4cccc(Cl)c4)CC3)CC2)c(F)c1` [SDC-TRAP-0510, (S)-2-(4-(5-chloro-2-(isopropylamino)pyridin-4-yl)-1H-pyrrole-2-carboxamido)-2-(3-chlorophenyl)ethyl 1-(1-(4-(3-(2,4-dihydroxy-5-isopropylphenyl)-5-(ethylcarbamoyl)-4H-1,2,4-triazol-4-yl)-2-fluorobenzyl)piperidine-4-carbonyl)piperidine-4-carboxylate], the “Mouse blood stability 1 h (% remaining)” value in data set [1] is reported as 77.1%. Moreover, the IC50 in data set [2] was found to be 91 nM. This compound also had a Kd at Hsp90 of 6.14 nM.
The like results for `CC(C)Nc1cc(-c2c[nH]c(C(=O)N[C@H](COC(=O)C3CCN(C(=O)C4CCN(Cc5ccc(-n6c(O)nnc6-c6cc(C(C)C)c(O)cc6O)cc5F)CC4)CC3)c3cccc(Cl)c3)c2)c(Cl)cn1` [SDC-TRAP-0511, (S)-2-(4-(5-chloro-2-(isopropylamino)pyridin-4-yl)-1H-pyrrole-2-carboxamido)-2-(3-chlorophenyl)ethyl 1-(1-(4-(3-(2,4-dihydroxy-5-isopropylphenyl)-5-hydroxy-4H-1,2,4-triazol-4-yl)-2-fluorobenzyl)piperidine-4-carbonyl)piperidine-4-carboxylate] were, in that order, 30.8%, 465 nM and 2.9 nM.
On to `CC(C)Nc1cc(-c2c[nH]c(C(=O)N[C@H](COC(=O)CC3CCN(C(=O)C4CCN(Cc5ccc(-n6c(O)nnc6-c6cc(C(C)C)c(O)cc6O)cc5F)CC4)CC3)c3cccc(Cl)c3)c2)c(Cl)cn1` [SDC-TRAP-0513, (S)-2-(4-(5-chloro-2-(isopropylamino)pyridin-4-yl)-1H-pyrrole-2-carboxamido)-2-(3-chlorophenyl)ethyl 2-(1-(1-(4-(3-(2,4-dihydroxy-5-isopropylphenyl)-5-hydroxy-4H-1,2,4-triazol-4-yl)-2-fluorobenzyl)piperidine-4-carbonyl)piperidin-4-yl)acetate], for which the “Mouse blood stability 1 h (% remaining)” value in data set [1] is 48.2%. Further, the IC50 in data set [2] was 519 nM. Further, on Hsp90, binding was characterised by a dissociation constant (Kd) of 0.88 nM.
Take `CCNC(=O)c1nnc(-c2cc(C(C)C)c(O)cc2O)n1-c1ccc(CN2CCC(C(=O)NC(C)(C)C(=O)OC[C@@H](NC(=O)c3cc(-c4cc(NC(C)C)ncc4Cl)c[nH]3)c3cccc(Cl)c3)CC2)c(F)c1` [SDC-TRAP-0514, (S)-2-(4-(5-chloro-2-(isopropylamino)pyridin-4-yl)-1H-pyrrole-2-carboxamido)-2-(3-chlorophenyl)ethyl 2-(1-(4-(3-(2,4-dihydroxy-5-isopropylphenyl)-5-(ethylcarbamoyl)-4H-1,2,4-triazol-4-yl)-2-fluorobenzyl)piperidine-4-carboxamido)-2-methylpropanoate]: in data set [1], the “Mouse blood stability 1 h (% remaining)” value was 105%. For the same compound, in data set [2], the IC50 worked out at 345 nM.
`CCNC(=O)c1nnc(-c2cc(C(C)C)c(O)cc2O)n1-c1ccc(CN2CCC(C(=O)N3CC(C(=O)OC[C@@H](NC(=O)c4cc(-c5cc(NC(C)C)ncc5Cl)c[nH]4)c4cccc(Cl)c4)C3)CC2)c(F)c1` [SDC-TRAP-0515, (S)-2-(4-(5-chloro-2-(isopropylamino)pyridin-4-yl)-1H-pyrrole-2-carboxamido)-2-(3-chlorophenyl)ethyl 1-(1-(4-(3-(2,4-dihydroxy-5-isopropylphenyl)-5-(ethylcarbamoyl)-4H-1,2,4-triazol-4-yl)-2-fluorobenzyl)piperidine-4-carbonyl)azetidine-3-carboxylate]: the “Mouse blood stability 1 h (% remaining)” value in data set [1] was determined as 30%. Also, the IC50 in data set [2] turned out to be 181 nM. In addition, binding at Hsp90 was characterised by a dissociation constant (Kd) of 0.97 nM.
As to `CCNC(=O)c1nnc(-c2cc(C(C)C)c(O)cc2O)n1-c1ccc(CN2CCC(C(=O)N3CC[C@H](C(=O)OC[C@@H](NC(=O)c4cc(-c5cc(NC(C)C)ncc5Cl)c[nH]4)c4cccc(Cl)c4)C3)CC2)c(F)c1` [SDC-TRAP-0516, (S)-(S)-2-(4-(5-chloro-2-(isopropylamino)pyridin-4-yl)-1H-pyrrole-2-carboxamido)-2-(3-chlorophenyl)ethyl 1-(1-(4-(3-(2,4-dihydroxy-5-isopropylphenyl)-5-(ethylcarbamoyl)-4H-1,2,4-triazol-4-yl)-2-fluorobenzyl)piperidine-4-carbonyl)pyrrolidine-3-carboxylate], the “Mouse blood stability 1 h (% remaining)” value in data set [1] amounted to 55.5%. The IC50 in data set [2] came to 123 nM. Besides, the Kd at Hsp90 turned out to be 1.29 nM.
For the compound `CCNC(=O)c1nnc(-c2cc(C(C)C)c(O)cc2O)n1-c1ccc(C(=O)N(C)[C@@H](C(=O)N[C@H](C(=O)N(C)C([C@@H](C)CC)[C@@H](CC(=O)N2CCC[C@@H]2[C@@H](OC)[C@@H](C)C(=O)N[C@@H](C)[C@H](O)c2ccccc2)OC)C(C)C)C(C)C)cc1` (stereo partly drawn) [SDC-TRAP-0536, 5-(2,4-dihydroxy-5-isopropylphenyl)-N-ethyl-4-(4-(((2R)-1-(((2S)-1-(((3R,5S)-1-((R)-2-((1S,2R)-3-(((1R,2S)-1-hydroxy-1-phenylpropan-2-yl)amino)-1-methoxy-2-methyl-3-oxopropyl)pyrrolidin-1-yl)-3-methoxy-5-methyl-1-oxoheptan-4-yl)(methyl)amino)-3-methyl-1-oxobutan-2-yl)amino)-3-methyl-1-oxobutan-2-yl)(methyl)carbamoyl)phenyl)-4H-1,2,4-triazole-3-carboxamide], the Kd at Hsp90 turned out to be 0.77 nM.
